Experimental data: publication PMC12367827, “Prioritisation of co-formulants and plant protection products for non-dietary risk assessment using NAMs” (Archives of Toxicology, 2025)

Experiments:
CYP1A2 = target: T1, CYP1A2 (Homo sapiens, UniProt P05177); assay: P450-Glo luminescence turnover; type: biochemical; conditions: NADPH regeneration system; potassium phosphate buffer; […] °C; luminogenic substrate
T1 construct: recombinant human enzyme in membrane preparation (Promega P450-Glo CYP1A2 Screening System)
T1 sequence (P05177 2-516): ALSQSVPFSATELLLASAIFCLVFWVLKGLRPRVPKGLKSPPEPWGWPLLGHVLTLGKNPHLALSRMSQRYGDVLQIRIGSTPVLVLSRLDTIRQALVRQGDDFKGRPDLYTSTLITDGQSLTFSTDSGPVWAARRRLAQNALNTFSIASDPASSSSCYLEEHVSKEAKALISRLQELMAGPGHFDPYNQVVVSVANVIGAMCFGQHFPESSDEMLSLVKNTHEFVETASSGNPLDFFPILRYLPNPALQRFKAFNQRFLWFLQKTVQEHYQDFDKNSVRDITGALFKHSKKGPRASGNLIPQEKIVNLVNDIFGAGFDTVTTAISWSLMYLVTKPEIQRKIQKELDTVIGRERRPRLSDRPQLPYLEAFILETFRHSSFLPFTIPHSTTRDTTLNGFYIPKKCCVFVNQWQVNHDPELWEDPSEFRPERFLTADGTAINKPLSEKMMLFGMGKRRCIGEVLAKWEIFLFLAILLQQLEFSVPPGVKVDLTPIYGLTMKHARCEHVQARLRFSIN

CYP2C19 = CYP2C19 (Homo sapiens, UniProt P33261); assay: P450-Glo luminescence inhibition assay
Sequence of CYP2C19 (P33261 whole entry): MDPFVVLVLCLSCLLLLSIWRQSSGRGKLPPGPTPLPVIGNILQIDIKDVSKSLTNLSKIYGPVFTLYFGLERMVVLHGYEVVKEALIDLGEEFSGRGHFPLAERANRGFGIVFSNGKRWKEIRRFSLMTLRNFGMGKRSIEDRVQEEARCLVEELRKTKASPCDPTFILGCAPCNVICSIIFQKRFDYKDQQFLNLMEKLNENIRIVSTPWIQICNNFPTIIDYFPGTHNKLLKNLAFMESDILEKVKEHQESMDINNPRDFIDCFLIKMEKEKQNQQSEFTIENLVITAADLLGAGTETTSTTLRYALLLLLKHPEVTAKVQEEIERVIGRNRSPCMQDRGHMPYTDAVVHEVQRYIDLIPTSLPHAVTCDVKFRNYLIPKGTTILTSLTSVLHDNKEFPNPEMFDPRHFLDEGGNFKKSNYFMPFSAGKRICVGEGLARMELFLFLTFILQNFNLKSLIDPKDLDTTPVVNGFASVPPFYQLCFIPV

IC50 (CYP2C19) [µM] | Compound | P450-Glo luminescence turnover (CYP1A2)
– | COc1ccc2nc(C3=NC(C(=O)O)CS3)sc2c1 (centres unmarked) [Luciferin-ME] | Luciferin-ME (CYP1A2) as luminogenic substrate
4.05 | CCCCCCCCCC(=O)N(C)C [NDA, N,N-dimethyldecanamide] | –
